These results are taken from PubChem BioAssay AID256 (DTP/NCI, 2004).

The test deals with CD2F1 mice, L1210 leukemia ip, survival T/C. The experiment in a line: NCI In Vivo Anticancer Drug Screen. Data for tumor model L1210 Leukemia (intraperitoneal) in CD2F1 (CDF1) mice. As to conditions: higher = longer survival. Put shortly:
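Compound-dosed mice with transplantable tumor versus matched vehicle controls; endpoint ratio T/C reported.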

Setting [1] is: endpoint: mean survival time, dose: 100.0 mg/kg/injection, schedule: Q01DX009 (ip), vehicle: saline with Tween-80.
Where [2] appears, read: endpoint: mean survival time, dose: 200.0 mg/kg/injection, schedule: Q01DX009 (ip), vehicle: saline with Tween-80.
The mark [3] stands for this setting: endpoint: mean survival time, dose: 400.0 mg/kg/injection, schedule: Q01DX009 (ip), vehicle: saline with Tween-80.
Setting [4] is: endpoint: mean survival time, dose: 50.0 mg/kg/injection, schedule: Q01DX009 (ip), vehicle: saline with Tween-80.
Where [5] appears, read: endpoint: mean survival time, dose: 100.0 mg/kg/injection, schedule: Q04DX003 (ip), vehicle: saline with Tween-80.
[6] abbreviates: endpoint: mean survival time, dose: 200.0 mg/kg/injection, schedule: Q04DX003 (ip), vehicle: saline with Tween-80.
[7] abbreviates: endpoint: mean survival time, dose: 400.0 mg/kg/injection, schedule: Q04DX003 (ip), vehicle: saline with Tween-80.
[8] abbreviates: endpoint: mean survival time, dose: 100.0 mg/kg/injection, schedule: Q01DX001 (ip), vehicle: saline with Tween-80.
Setting [9] is: endpoint: mean survival time, dose: 200.0 mg/kg/injection, schedule: Q01DX001 (ip), vehicle: saline with Tween-80.
Setting [10] is: endpoint: mean survival time, dose: 400.0 mg/kg/injection, schedule: Q01DX001 (ip), vehicle: saline with Tween-80.
Where [11] appears, read: endpoint: mean survival time, dose: 100.0 mg/kg/injection, schedule: Q04DX003 (ip), vehicle: saline.
Where [12] appears, read: endpoint: mean survival time, dose: 200.0 mg/kg/injection, schedule: Q04DX003 (ip), vehicle: saline.
Where [13] appears, read: endpoint: mean survival time, dose: 12.5 mg/kg/injection, schedule: Q01DX009 (ip), vehicle: saline with Tween-80.
The mark [14] stands for this setting: endpoint: mean survival time, dose: 25.0 mg/kg/injection, schedule: Q01DX009 (ip), vehicle: saline with Tween-80.
Setting [15] is: endpoint: mean survival time, dose: 25.0 mg/kg/injection, schedule: Q04DX003 (ip), vehicle: saline with Tween-80.
The mark [16] stands for this setting: endpoint: mean survival time, dose: 50.0 mg/kg/injection, schedule: Q04DX003 (ip), vehicle: saline with Tween-80.

Each structure is given as a SMILES string. Values joined by “and” are separate entries in the source; they are usually repeats but may differ in a detail not shown here. Equal values may be shown once. Toxic doses and inconclusive results are not listed.

Consider `CC(=O)OCC1OC2OC(C)(OC(C)(C)C)OC2C(OC(C)=O)C1OC(C)=O` (configuration not stated), for which the T/C is 97 % of control (endpoint: mean survival time, dose: 12.5 mg/kg/injection, schedule: Q01DX009 (ip), vehicle: other); 95 % of control (endpoint: mean survival time, dose: 25.0 mg/kg/injection, schedule: Q01DX009 (ip), vehicle: other); 97 % of control (endpoint: mean survival time, dose: 50.0 mg/kg/injection, schedule: Q01DX009 (ip), vehicle: other); 103 % of control (endpoint: mean survival time, dose: 100.0 mg/kg/injection, schedule: Q01DX009 (ip), vehicle: other); 98 % of control (endpoint: mean survival time, dose: 200.0 mg/kg/injection, schedule: Q01DX009 (ip), vehicle: other).
For the compound `CN(C)C(Cl)(Cl)Nc1ccc(Cl)cc1`, the T/C runs as follows: under setting [1], 91 % of control; under setting [2], 107 % of control; under setting [3], 113 % of control.
With `[N-]=[N+]=Nc1cc(NC(=O)c2ccccc2)ccc1NC(=O)c1ccccc1`, the T/C reads like this: under setting [4], 101 % of control; under setting [1], 96 % of control; under setting [2], 104 % of control.
For `NC(=O)c1ccc[n+](Cc2ccccc2)c1`, the T/C is, setting by setting: (endpoint: mean survival time, dose: 75.0 mg/kg/injection, schedule: Q01DX001 (ip), vehicle: saline) 98 % of control; (endpoint: mean survival time, dose: 150.0 mg/kg/injection, schedule: Q01DX001 (ip), vehicle: saline) 96 % of control.
For `CC(=O)Nc1cc(C/C(N)=N/O)cc(NC(C)=O)c1`, the T/C is, setting by setting: under setting [5], 100 % of control; under setting [6], 103 % of control; under setting [7], 111 % of control.
Consider `Cc1ccc(S(=O)(=O)N(C)c2ccc(C(=O)O)c(Cl)c2Cl)cc1`, for which the T/C was 96 % of control under setting [8]; 101 % of control under setting [1]; 93 % of control under setting [9]; 98 % of control under setting [2]; 102 % of control under setting [10]; 98 % of control under setting [3].
`CN(CCN1CCCC1)C(=O)C(O)(c1ccccc1)c1ccccc1`: the T/C was 96 % of control under setting [11] and 93 % of control under setting [12].
In the case of `CC(C)NC(=O)N(CCCCBr)N=O`, the T/C runs as follows: (endpoint: median survival time, dose: 12.0 mg/kg/injection, schedule: Q01DX009 (ip), vehicle: Klucel (hydroxypropylcellulose) (HPC)) 108 % of control; (endpoint: median survival time, dose: 25.0 mg/kg/injection, schedule: Q01DX009 (ip), vehicle: Klucel (hydroxypropylcellulose) (HPC)) 116 % of control; (endpoint: median survival time, dose: 50.0 mg/kg/injection, schedule: Q01DX009 (ip), vehicle: Klucel (hydroxypropylcellulose) (HPC)) 124 % of control; (endpoint: median survival time, dose: 100.0 mg/kg/injection, schedule: Q01DX009 (ip), vehicle: Klucel (hydroxypropylcellulose) (HPC)) 160 % of control; (endpoint: median survival time, dose: 200.0 mg/kg/injection, schedule: Q01DX009 (ip), vehicle: Klucel (hydroxypropylcellulose) (HPC)) 112 % of control.
Turning to `CC1=C(/C=C/C(C)=N/NC(N)=S)C(C)(C)CCC1`, the T/C under setting [13] was 106 % of control, the T/C under setting [14] was 115 % of control, the T/C under setting [15] was 98 % of control and the T/C under setting [16] is 104 % of control.
`CC(C)(C)C(=O)CC(=O)C(C)(C)C`: the T/C reads like this: under setting [5], 95 % of control and 94 % of control; under setting [6], 91 % of control and 100 % of control; under setting [7], 95 % of control.
Consider `NC(=S)c1csc(CCNC(=O)c2ccccc2)n1`, for which the T/C reads like this: under setting [8], 100 % of control; under setting [1], 98 % of control; under setting [11], 96 % of control; under setting [9], 97 % of control; under setting [2], 98 % of control; under setting [12], 89 % of control. In addition, the T/C is, setting by setting: under setting [10], 97 % of control; under setting [3], 100 % of control; (endpoint: mean survival time, dose: 400.0 mg/kg/injection, schedule: Q04DX003 (ip), vehicle: saline) 93 % of control.
In the case of `O=C(Nc1ccc(CCO)cc1)Nc1ccc(F)c([N+](=O)[O-])c1`, the T/C was 98 % of control under setting [8]; 93 % of control under setting [1]; 101 % of control under setting [5]; 96 % of control under setting [9]; 94 % of control under setting [2]; 98 % of control under setting [6]. For the same compound, the T/C under setting [10] is 92 % of control, the T/C under setting [3] is 93 % of control and the T/C under setting [7] was 102 % of control.
As for `NCCCNCCSP(=O)(O)O`, the T/C by setting is: under setting [13], 106 % of control; (endpoint: mean survival time, dose: 12.5 mg/kg/injection, schedule: Q01DX009 (ip), vehicle: saline) 95 % of control; under setting [14], 101 % of control; (endpoint: mean survival time, dose: 25.0 mg/kg/injection, schedule: Q01DX009 (ip), vehicle: saline) 106 % of control; under setting [4], 102 % of control; (endpoint: mean survival time, dose: 50.0 mg/kg/injection, schedule: Q01DX009 (ip), vehicle: saline) 101 % of control. Further, the T/C is, setting by setting: under setting [1], 101 % of control; (endpoint: mean survival time, dose: 100.0 mg/kg/injection, schedule: Q01DX009 (ip), vehicle: saline) 96 % of control; under setting [2], 104 % of control; (endpoint: mean survival time, dose: 200.0 mg/kg/injection, schedule: Q01DX009 (ip), vehicle: saline) 106 % of control; (endpoint: mean survival time, dose: 400.0 mg/kg/injection, schedule: Q01DX009 (ip), vehicle: saline) 93 % of control.
Regarding `O=C(O)CCC(CCC(=O)O)(C(=O)O)C(=O)O`, the T/C (endpoint: median survival time, dose: 75.0 mg/kg/injection, schedule: Q01DX009 (ip), vehicle: saline) was 98 % of control; the T/C (endpoint: median survival time, dose: 150.0 mg/kg/injection, schedule: Q01DX009 (ip), vehicle: saline) is 96 % of control; the T/C (endpoint: median survival time, dose: 300.0 mg/kg/injection, schedule: Q01DX009 (ip), vehicle: saline) was 96 % of control.
As to `O=C1CCCC2C3CC(CN12)C1CCCCN1C3` (configuration not stated), the T/C is, setting by setting: under setting [14], 103 % of control; under setting [4], 101 % of control; under setting [1], 100 % of control; under setting [5], 97 % of control.
For the compound `CC(CCCC#N)[N+](=O)[O-]` (configuration not stated), the T/C is, setting by setting: (endpoint: mean survival time, dose: 5.0 mg/kg/injection, schedule: Q01DX001 (ip), vehicle: saline) 102 % of control; (endpoint: mean survival time, dose: 10.0 mg/kg/injection, schedule: Q01DX001 (ip), vehicle: saline) 96 % of control; (endpoint: mean survival time, dose: 20.0 mg/kg/injection, schedule: Q01DX001 (ip), vehicle: saline) 102 % of control; (endpoint: mean survival time, dose: 40.0 mg/kg/injection, schedule: Q01DX001 (ip), vehicle: saline) 102 % of control; (endpoint: mean survival time, dose: 100.0 mg/kg/injection, schedule: Q01DX001 (ip), vehicle: saline) 98 % of control.
`COc1cc(/C=N/n2c(-c3ccccc3)nc3ccccc3c2=O)cc(Br)c1O`: the T/C reads like this: (endpoint: mean survival time, dose: 50.0 mg/kg/injection, schedule: Q01DX009 (ip), vehicle: Klucel (hydroxypropylcellulose) (HPC)) 91 % of control; (endpoint: mean survival time, dose: 100.0 mg/kg/injection, schedule: Q01DX009 (ip), vehicle: Klucel (hydroxypropylcellulose) (HPC)) 105 % of control; (endpoint: mean survival time, dose: 200.0 mg/kg/injection, schedule: Q01DX009 (ip), vehicle: Klucel (hydroxypropylcellulose) (HPC)) 102 % of control.
Take `CCN(CC)Cc1cc(Nc2c3ccc(Cl)cc3nc3ccc(OC)nc23)ccc1O`: the T/C is, setting by setting: (endpoint: mean survival time, dose: 25.0 mg/kg/injection, schedule: Q01DX001 (ip), vehicle: saline with Tween-80) 94 % of control; (endpoint: mean survival time, dose: 50.0 mg/kg/injection, schedule: Q01DX001 (ip), vehicle: saline with Tween-80) 94 % of control; under setting [8], 90 % of control; under setting [9], 95 % of control; under setting [10], 91 % of control.
As to `C[N+](C)(C)C12CCCC1S(=O)(=O)C2` (configuration not stated), the T/C (endpoint: mean survival time, dose: 25.0 mg/kg/injection, schedule: Q04DX003 (ip), vehicle: saline) was 106 % of control; the T/C (endpoint: mean survival time, dose: 50.0 mg/kg/injection, schedule: Q04DX003 (ip), vehicle: saline) was 98 % of control; the T/C under setting [11] was 96 % of control.
On to `COc1ccc2c(c1)CCC1(C)C2=CC(=O)/C1=C\[O-].COc1ccc2c(c1)CCC1(C)C2=CC(=O)/C1=C\[O-].[Cu+2]` (configuration not stated), for which the T/C was 96 % of control under setting [15], 87 % of control under setting [16] and 86 % of control under setting [5].
Regarding `CCOC(=O)c1ccc2c(ccc[n+]2C)c1`, the T/C runs as follows: (endpoint: mean survival time, dose: 37.5 mg/kg/injection, schedule: Q01DX009 (ip), vehicle: saline with Tween-80) 112 % of control; (endpoint: mean survival time, dose: 75.0 mg/kg/injection, schedule: Q01DX009 (ip), vehicle: saline with Tween-80) 107 % of control; (endpoint: mean survival time, dose: 150.0 mg/kg/injection, schedule: Q01DX009 (ip), vehicle: saline with Tween-80) 103 % of control.
As for `COc1cc(/C=N/NC(=O)c2cccs2)cc(OC)c1OC`, the T/C by setting is: under setting [5], 98 % of control; under setting [6], 93 % of control; under setting [7], 88 % of control.
